From PubChem BioAssay (NCI)
Where “and” joins values, the source holds several entries; their conditions need not be identical. Equal values may be shown once.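 Following 48 hours of exposure in 96-well plates, responses at five concentrations were used to interpolate endpoints linearly. GI50 marks 50% less growth. TGI is the concentration that stops growth completely.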

The compounds below were run on HL-60(TB) leukemia (assay: inhibition of tumour cell growth, NCI panel, 48 h).
`O=C(CCc1nc(=S)[nH][nH]1)Nc1ccc(Cl)c(Cl)c1` showed a TGI of over 100 µM. `COC(=O)C1(C(C)C)CCc2c(OC)ccc(OC)c2C1=O` (stereo not given) showed a TGI of over 100 µM. In the case of `Cc1ccc(S(=O)(=O)OC[C@@H]2CO2)cc1`, the TGI is reported as over 100 µM. With `COc1cc2cc(OC)c3cc4c(cc3c2c(OC)c1OC)OCO4` the TGI was 45.7 µM. With `O=C(CC(=O)c1cccc2ccccc12)C(=O)Nc1ccc(Cl)cc1` the TGI was over 100 µM. With `OCc1cc2ccccc2c2c3c(ccc12)OCO3` the GI50 was 23.7 µM and the TGI was 66.2 µM. With `CCCCCCCCCCCCCC(=O)OC(/C=C/C(C)C)C(O)C(O)C(OC)C(=O)NC1CCCCN(C)C1=O` (stereo not given) the TGI was 5.49 µM and 10.4 µM and > 49 µM. Compound `CC1(C(=O)O)CCC[C@@]2(C)C1CC[C@@]1(C)c3cocc3CCC21` (stereo not given in full) has a TGI of over 100 µM. For `CCn1c(C)nn2c(=O)c3ccccc3nc2c1=O`, the TGI was over 100 µM. `COc1cnc2c(c1)C(=O)c1c-2n(CCCN2CCOCC2)c(=O)c2cc(F)ccc12` gave a GI50 of 0.373 µM and a TGI of 2.85 µM. Work on `CCOC(=O)CCC1(C(=O)OCC)CCCCC1=O` (stereo not given) yielded a TGI of over 100 µM. `CCN(CC)CCSc1c2ccccc2nc2cc(NCC(=O)Nc3ccccc3-c3ccccc3NC(=O)CNc3ccc4c(SCCN(CC)CC)c5ccccc5nc4c3)ccc12` gave a TGI of 49.3 µM. `Cc1nc2c(ccc3ncccc32)[nH]1` was tested, and the TGI was over 100 µM. In the case of `CCN1CCN(Cc2ccc(NC(=O)c3cccc(C#Cc4cccc5[nH]nc(N)c45)c3)cc2C(F)(F)F)CC1`, the GI50 is reported as 0.0979 µM and the TGI is reported as 1.04 µM. Compound `Cc1cc(N(CCC#N)CCC#N)ccc1N=Nc1ccc(S(N)(=O)=O)cc1` has a TGI of over 100 µM. `CC(=O)[CH-]C(=O)c1ccccc1.CC(=O)[CH-]C(=O)c1ccccc1.CN(C)c1ccc([O-])cc1.CN(C)c1ccc([O-])cc1.Cl.[Ti+4]` gave a GI50 of 20.9 µM and a TGI of over 31.6 µM. `CC1(C)C(=O)/C=C\C(=O)C(C)(C)C2=CC=C(O2)C(C)(C)C(=O)/C=C\C(=O)C(C)(C)C2=CC=C1O2` gave a TGI of over 100 µM. Compound `NC(=O)NO.O.O.O.O.O.O.O.O.O.O.O.[Ge].[Ge].[Ge].[Ge].[Ge].[O]=[Ge].[O]=[Ge].[O]=[Ge].[O]=[Ge].[O]=[Ge][OH]` has a TGI of 12.6 µM. For `CN(C)C(=S)N=C(Nc1ccccc1)Nc1ccccc1`, the TGI was over 100 µM. Work on `Nc1ccccc1S(=O)(=O)N(CC(=O)O)c1ccccc1` yielded a TGI of over 100 µM. `CCOC(=O)C(C)(C)Oc1ccc2c(-c3ccccc3)cc(=O)oc2c1` was tested, and the TGI was 63.8 µM. In the case of `CNS(=O)(=O)NNS(=O)(=O)c1ccccc1`, the TGI is reported as over 100 µM. For `Cc1cc(NS(=O)(=O)c2ccc(Nc3c4ccccc4nc4c(C(=O)N5CCN(CCOS(C)(=O)=O)CC5)cccc34)cc2)no1`, the TGI was over 100 µM. For `O=C(O)CCC(NC(=O)c1ccc(Nc2nc3ccccc3nc2-c2cccs2)cc1)C(=O)O` (stereo not given), the TGI was over 100 µM. For `NC1=NCCC1(c1ccccc1)c1ccccn1` (stereo not given), the TGI was over 100 µM. For `CNC(=S)OCCC(C)CCCC(C)C` (stereo not given), the TGI was 23.6 µM. Compound `COC(=O)/C(C#N)=C1\NC(=O)c2ccccc21` has a TGI of over 100 µM.

The compounds below were run on NCI/ADR-RES ovarian (assay: inhibition of tumour cell growth, NCI panel, 48 h).
With `Nc1nc(-n2c(-c3ccccc3)nc3c(Br)cc(Br)cc3c2=O)nnc1-c1cccc(Cl)c1Cl` the GI50 was 2.01 µM and the TGI was 6.88 µM. With `COc1ccc(CC2c3cc4c(cc3CCN2C)OCO4)c(C=O)c1OC` (stereo not given) the TGI was over 100 µM. `OCc1cc2ccccc2c2c3c(ccc12)OCO3` gave a GI50 of 29.6 µM and a TGI of 126 µM. `COc1cnc2c(c1)C(=O)c1c-2n(CCCN2CCOCC2)c(=O)c2cc(F)ccc12` was tested, and the GI50 was 0.299 µM and the TGI was over 100 µM. `CCOC1Oc2ccccc2C(=O)/C1=C/Nc1ccc(C(C)=O)cc1` (stereo not given) gave a GI50 of 15.6 µM and a TGI of 38.6 µM. `CCN1CCN(Cc2ccc(NC(=O)c3cccc(C#Cc4cccc5[nH]nc(N)c45)c3)cc2C(F)(F)F)CC1` was tested, and the GI50 was 1.59 µM and the TGI was 5.21 µM. With `CCN(CC)N=Nc1c(C(N)=O)n[nH]c1C` the TGI was over 100 µM. Compound `OCCN(CCO)c1ncnc2c1ncn2Cc1ccc(CCl)cc1` has a GI50 of 24.7 µM and a TGI of 74.1 µM. With `COC1/C=C/OC2(C)Oc3c(C)c(O)c4c(O)c(c(/C=N/Nc5ccc([N+](=O)[O-])cc5[N+](=O)[O-])c(O)c4c3C2=O)NC(=O)C(C)=C/C=C/C(C)C(O)C(C)C(O)C(C)C(OC(C)=O)C1C` (stereo not given) the GI50 was 22.2 µM and the TGI was over 50 µM.

What follows are compounds tested on SF-295 CNS (assay: inhibition of tumour cell growth, NCI panel, 48 h).
`Nc1nc(-n2c(-c3ccccc3)nc3c(Br)cc(Br)cc3c2=O)nnc1-c1cccc(Cl)c1Cl` gave a GI50 of 11.2 µM and a TGI of 34.8 µM. `Cc1c(C(=O)C/C(=N/NC(=O)c2ccccc2O)C(=O)Nc2ccccc2C(C)C)[n+](=O)c2ccccc2n1[O-]` was tested, and the TGI was over 100 µM.
